What follows are compounds tested against T1, IRAK4 (Homo sapiens, UniProt Q9NWZ3) (assay: RBC HotSpot Kinase Assay, IRAK4).
T1 sequence (Q9NWZ3 1-460): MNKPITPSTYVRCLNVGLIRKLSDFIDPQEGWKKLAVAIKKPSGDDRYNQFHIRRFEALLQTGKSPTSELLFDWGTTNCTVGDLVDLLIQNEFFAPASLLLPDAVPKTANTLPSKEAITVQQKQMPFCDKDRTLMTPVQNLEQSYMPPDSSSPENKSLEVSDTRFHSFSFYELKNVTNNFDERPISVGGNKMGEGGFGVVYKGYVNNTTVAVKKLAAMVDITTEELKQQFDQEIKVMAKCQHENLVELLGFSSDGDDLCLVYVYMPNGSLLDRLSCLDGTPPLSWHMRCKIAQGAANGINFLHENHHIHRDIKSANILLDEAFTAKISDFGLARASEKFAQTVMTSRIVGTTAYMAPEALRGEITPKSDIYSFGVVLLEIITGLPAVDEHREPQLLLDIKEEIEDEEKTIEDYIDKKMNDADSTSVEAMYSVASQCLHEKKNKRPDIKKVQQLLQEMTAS
Type: biochemical
Parameters: purchased Reaction Biology (RBC HotSpot Kinase Assay)
In short: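 Radiometric filter-binding (HotSpot) activity assay on isolated recombinant kinase, possibly truncated or catalytic domain only, in 20 mM Hepes pH 7.5, 10 mM MgCl2, 1 mM EGTA, 2 mM DTT, 1% DMSO. Compound preincubated 20 min with kinase and substrate, then ^33P-ATP added. Reaction 2 h at room temperature, read by P81 filter binding.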

Row | SMILES | IC50 [nM]
1 | F[C@H]1CNC[C@@H]1Nc1cccc(-c2cnc3ccc(-c4cnn5ccccc45)nn23)n1 [Compound 9, N-((3S,4S)-4-fluoropyrrolidin-3-yl)-6-(6-(pyrazolo[1,5-a]pyridin-3-yl)imidazo[1,2-b]pyridazin-3-yl)pyridin-2-amine] | 7
2 | c1cc(N[C@@H]2CCCNC2)nc(-c2cnc3ccc(-c4cnn5ccccc45)nn23)c1 [Compound 19, (R)-N-(piperidin-3-yl)-6-(6-(pyrazolo[1,5-a]pyridin-3-yl)imidazo[1,2-b]pyridazin-3-yl)pyridin-2-amine] | 3
3 | COc1cc2ncc(-c3cccc(N[C@H]4CNC[C@@H]4F)n3)n2nc1C1CC1 [Compound 96, 6-(6-cyclopropyl-7-methoxyimidazo[1,2-b]pyridazin-3-yl)-N-((3S,4S)-4-fluoropyrrolidin-3-yl)pyridin-2-amine] | 3
4 | COc1cc2ncc(-c3cccc(N[C@@H]4CCNC4)n3)n2nc1C1CC1 [Compound 97, (R)-6-(6-cyclopropyl-7-methoxyimidazo[1,2-b]pyridazin-3-yl)-N-(pyrrolidin-3-yl)pyridin-2-amine] | 2
5 | COc1cc2ncc(-c3cccc(N[C@H]4CNC[C@@H]4C(F)(F)F)n3)n2nc1C1CC1 [Compound 99, 6-(6-cyclopropyl-7-methoxyimidazo[1,2-b]pyridazin-3-yl)-N-((3R,4S)-4-(trifluoromethyl)pyrrolidin-3-yl)pyridin-2-amine] | 0.5
6 | COc1cc2ncc(-c3cccc(N[C@H]4CNCC[C@@H]4F)n3)n2nc1C1CC1 [Compound 102, 6-(6-cyclopropyl-7-methoxyimidazo[1,2-b]pyridazin-3-yl)-N-((3S,4S)-4-fluoropiperidin-3-yl)pyridin-2-amine] | 1

More lines, now with the values ahead:

Row | IC50 [nM] | SMILES
7 | < 0.5 | COc1cc2ncc(-c3cccc(N[C@H]4CNC[C@@H]4F)n3)n2nc1C(C)(O)C(F)(F)F (single isomer, unassigned; fast-eluting) [Compound 133]
8 | 0.8 | COc1cc2ncc(-c3nc(N[C@@H]4CCCNC4)c(F)cc3F)n2nc1C1CC1 [Compound 106, (R)-6-(6-cyclopropyl-7-methoxyimidazo[1,2-b]pyridazin-3-yl)-3,5-difluoro-N-(piperidin-3-yl)pyridin-2-amine]
9 | < 0.5 | COc1cc2ncc(-c3nc(N[C@H]4CNC[C@@H]4F)c(F)cc3F)n2nc1C1CC1 [Compound 107, 6-(6-cyclopropyl-7-methoxyimidazo[1,2-b]pyridazin-3-yl)-3,5-difluoro-N-((3S,4S)-4-fluoropyrrolidin-3-yl)pyridin-2-amine]
10 | 0.6 | COc1cc2ncc(-c3nc(N[C@H]4CNCC[C@@H]4F)c(F)cc3F)n2nc1C1CC1 [Compound 108, 6-(6-cyclopropyl-7-methoxyimidazo[1,2-b]pyridazin-3-yl)-3,5-difluoro-N-((3S,4S)-4-fluoropiperidin-3-yl)pyridin-2-amine]
11 | 4 | COc1cc2ncc(-c3nc(N[C@H]4CNC[C@@H]4F)c(F)cc3F)n2nc1C(C)(C)O [Compound 126, 2-(3-(3,5-difluoro-6-(((3S,4S)-4-fluoropyrrolidin-3-yl)amino)pyridin-2-yl)-7-methoxyimidazo[1,2-b]pyridazin-6-yl)propan-2-ol]
12 | 16 | COc1cc2ncc(-c3nc(N[C@@H]4CCCNC4)c(F)cc3F)n2nc1C(C)(C)O [Compound 127, (R)-2-(3-(3,5-difluoro-6-(piperidin-3-ylamino)pyridin-2-yl)-7-methoxyimidazo[1,2-b]pyridazin-6-yl)propan-2-ol]
13 | 6 | COc1cc2ncc(-c3nc(N[C@H]4CNCC[C@@H]4F)c(F)cc3F)n2nc1C(C)(C)O [Compound 128, 2-(3-(3,5-difluoro-6-(((3S,4S)-4-fluoropiperidin-3-yl)amino)pyridin-2-yl)-7-methoxyimidazo[1,2-b]pyridazin-6-yl)propan-2-ol]

From US12534469B2 (CHILDREN'S HOSPITAL MEDICAL CENTER, priority 2020, dated 2026)
